Test results reported in paper PMC11149917, “Translational and Therapeutic Evaluation of RAS-GTP Inhibition by RMC-6236 in RAS-Driven Cancers” (Cancer Discovery, 2024).
Where two headings read alike, the source gives them in different places.

Assay: Mouse blood and tissue PK (LC/MS-MS)
Assay type: in vivo
Conditions: for Kp: tumor relative to whole blood
Procedure: For single-dose PKPD study, mice were randomized and assigned into groups (n = 3/dose/time point). […] Blood and tissues, including the tumor, brain, colon, ear skin, and muscle, were harvested at indicated time points. […] The whole blood, tumor, brain, colon, and ear skin concentrations of RMC-6236 were determined using liquid chromatography–tandem mass spectrometry (LC/MS-MS) methods. […] After thorough mixing and centrifugation, the supernatant was diluted with water or directly analyzed on a Sciex 5500 or Sciex 6500+ triple quadrupole mass spectrometer equipped with an ACQUITY or Shimadzu UPLC system. […] Bioanalysis on blood and tissue samples from xenograft models was run at Pharmaron and Wuxi AppTec. Concentrations reported as below the quantification limit were treated as zero for PK analysis. PK parameters were calculated by noncompartmental analysis of the concentration–time profiles using Phoenix WinNonLin (version 8.3 Certara). Apparent terminal elimination half-life (t1/2) values were calculated as ln(2)/k, where k represents the terminal elimination rate constant. Area under the concentration–time curve (AUC) values were estimated using a linear trapezoidal method. AUClast values were calculated from the dosing time to the last quantifiable concentration. Maximum concentration (Cmax) was recorded as observed.

[1] = NCI-H2122 (25 mg/kg), single dose

## CCn1c(-c2cc(N3CCN(C)CC3)cnc2[C@H](C)OC)c2c3cc(ccc31)-c1csc(n1)C[C@H](NC(=O)[C@H]1C[C@@H]1C)C(=O)N1CCC[C@H](N1)C(=O)OCC(C)(C)C2 [RMC-6236]
[1]
  Tumor AUClast: 50057 ng·h/mL
  Tumor Cmax: 3350 ng/mL
Naïve Mice #1 (10 mg/kg), single dose
  Brain Cmax: 25 ng/mL
Naïve Mice #1 (50 mg/kg), single dose
  Brain Cmax: 161 ng/mL
mouse, ear skin, oral, 25 mg/kg, sheet Ear Skin, model KP-4, study KP-4 #5, 25 mg/kg, read-out: RMC-6236 (nM) Tumor
  concentration at 4 h: 2790 nM
mouse, ear skin, oral, 25 mg/kg, sheet Ear Skin, model KP-4, study KP-4 #5, 25 mg/kg, 8h, read-out: RMC-6236 (nM) Tumor
  concentration at 8 h: 1610 nM
mouse, ear skin, oral, 25 mg/kg, sheet Ear Skin, model KP-4, study KP-4 #5, 25 mg/kg, 48h, read-out: RMC-6236 (nM) Tumor
  concentration at 48 h: 221 nM
mouse, oral, 3 mg/kg, NCI-H441 (3 mg/kg), single dose, read-out: Tumor/Blood AUC Ratio
  Kp: 5.4
mouse, oral, 10 mg/kg, NCI-H441 (10 mg/kg), single dose, read-out: Tumor/Blood AUC Ratio
  Kp: 4.6
mouse, oral, 25 mg/kg, HPAC (25 mg/kg), single dose, read-out: Tumor/Blood AUC Ratio
  Kp: 6.6
mouse, oral, 25 mg/kg, KP-4 (25 mg/kg), single dose, read-out: Tumor/Blood AUC Ratio
  Kp: 6.4
mouse, oral, 25 mg/kg, NCI-H358 (25 mg/kg), single dose, read-out: Tumor/Blood AUC Ratio
  Kp: 5.9
mouse, oral, 25 mg/kg, NCI-H441 #2 (25 mg/kg), QD x 10 days, read-out: Tumor/Blood AUC Ratio
  Kp: 4.9
mouse, oral, 25 mg/kg, NCI-H441 (25 mg/kg), single dose, read-out: Tumor/Blood AUC Ratio
  Kp: 6.1
mouse, oral, 25 mg/kg, NCI-H2122 (25 mg/kg), single dose, read-out: Tumor/Blood AUC Ratio
  Kp: 6.3
mouse, oral, various xenograft tumors, read-out: exposure in xenograft tumors relative to blood
  Kp: 3 to 7
mouse, tumor, oral, 0.3 mg/kg, HPAC #11, 0.3 mg/kg, 8h, individual animals, read-out: RMC-6236 (nM) Tumor
  concentration at 8 h: 37 nM
mouse, tumor, oral, 0.3 mg/kg, NCI-H441 xenograft tumor, study NCI-H441#10, 0.3 mg/kg, 24h, read-out: RMC-6236 (nM) Tumor
  concentration at 24 h: 36.8 nM
mouse, tumor, oral, 0.3 mg/kg, NCI-H441 xenograft tumor, study NCI-H441#13, 0.3 mg/kg, 8h, read-out: RMC-6236 (nM) Tumor
  concentration at 8 h: 89.5 nM
mouse, tumor, oral, 1 mg/kg, HPAC #11, 1 mg/kg, 8h, individual animals, read-out: RMC-6236 (nM) Tumor
  concentration at 8 h: 216 nM
mouse, tumor, oral, 1 mg/kg, NCI-H441 xenograft tumor, study NCI-H441#10, 1 mg/kg, 8h, read-out: RMC-6236 (nM) Tumor
  concentration at 8 h: 129 nM
mouse, tumor, oral, 1 mg/kg, NCI-H441 xenograft tumor, study NCI-H441#13, 1 mg/kg, 8h, read-out: RMC-6236 (nM) Tumor
  concentration at 8 h: 114 nM
mouse, tumor, oral, 1 mg/kg, NCI-H441 xenograft tumor, study NCI-H441#13, 1 mg/kg, 24h, read-out: RMC-6236 (nM) Tumor
  concentration at 24 h: 53.2 nM
mouse, tumor, oral, 3 mg/kg, HPAC #4, 3 mg/kg, 8h, individual animals, read-out: RMC-6236 (nM) Tumor
  concentration at 8 h: 245 nM
mouse, tumor, oral, 3 mg/kg, HPAC #4, 3 mg/kg, 24h, individual animals, read-out: RMC-6236 (nM) Tumor
  concentration at 24 h: 205 nM
mouse, tumor, oral, 3 mg/kg, HPAC #4, 3 mg/kg, 48h, individual animals, read-out: RMC-6236 (nM) Tumor
  concentration at 48 h: 31.9 nM
mouse, tumor, oral, 3 mg/kg, KP-4, study KP-4 #6, 3 mg/kg, read-out: RMC-6236 (nM) Tumor
  concentration at 4 h: 264 nM
mouse, tumor, oral, 3 mg/kg, KP-4, study KP-4 #6, 3 mg/kg, 8h, read-out: RMC-6236 (nM) Tumor
  concentration at 8 h: 340 nM
mouse, tumor, oral, 3 mg/kg, KP-4, study KP-4 #6, 3 mg/kg, 12h, read-out: RMC-6236 (nM) Tumor
  concentration at 12 h: 298 nM
mouse, tumor, oral, 3 mg/kg, KP-4, study KP-4 #6, 3 mg/kg, 48h, read-out: RMC-6236 (nM) Tumor
  concentration at 48 h: 29 nM
mouse, tumor, oral, 3 mg/kg, NCI-H441 xenograft tumor, study NCI-H441#6, 3 mg/kg, 24h, read-out: RMC-6236 (nM) Tumor
  concentration at 24 h: 159 nM
mouse, tumor, oral, 3 mg/kg, NCI-H441 xenograft tumor, study NCI-H441#6, 3 mg/kg, 48h, read-out: RMC-6236 (nM) Tumor
  concentration at 48 h: 63 nM
mouse, tumor, oral, 10 mg/kg, HPAC #4, 10 mg/kg, individual animals, read-out: RMC-6236 (nM) Tumor
  concentration at 4 h: 817 nM
mouse, tumor, oral, 10 mg/kg, HPAC #4, 10 mg/kg, 8h, individual animals, read-out: RMC-6236 (nM) Tumor
  concentration at 8 h: 1230 nM
mouse, tumor, oral, 10 mg/kg, HPAC #4, 10 mg/kg, 24h, individual animals, read-out: RMC-6236 (nM) Tumor
  concentration at 24 h: 300 nM
mouse, tumor, oral, 10 mg/kg, HPAC #4, 10 mg/kg, 48h, individual animals, read-out: RMC-6236 (nM) Tumor
  concentration at 48 h: 128 nM
mouse, tumor, oral, 10 mg/kg, KP-4, study KP-4 #6, 10 mg/kg, 48h, read-out: RMC-6236 (nM) Tumor
  concentration at 48 h: 235 nM
mouse, tumor, oral, 10 mg/kg, Model Validation Dataset, 10mg/kg_study6, 1 h, read-out: Tumor Concentration
  concentration at 1 h: 340 nM
mouse, tumor, oral, 10 mg/kg, Model Validation Dataset, 10mg/kg_study6, 8 h, read-out: Tumor Concentration
  concentration at 8 h: 1010 nM
mouse, tumor, oral, 10 mg/kg, Model Validation Dataset, 10mg/kg_study6, 24 h, read-out: Tumor Concentration
  concentration at 24 h: 353 nM
mouse, tumor, oral, 10 mg/kg, Model Validation Dataset, 10mg/kg_study6, 48 h, read-out: Tumor Concentration
  concentration at 48 h: 214 nM
mouse, tumor, oral, 10 mg/kg, NCI-H441 xenograft tumor, study NCI-H441#6, 10 mg/kg, 8h, read-out: RMC-6236 (nM) Tumor
  concentration at 8 h: 904 nM
mouse, tumor, oral, 10 mg/kg, NCI-H441 xenograft tumor, study NCI-H441#6, 10 mg/kg, 24h, read-out: RMC-6236 (nM) Tumor
  concentration at 24 h: 519 nM
mouse, tumor, oral, 10 mg/kg, NCI-H441 xenograft tumor, study NCI-H441#6, 10 mg/kg, 48h, read-out: RMC-6236 (nM) Tumor
  concentration at 48 h: 213 nM
mouse, tumor, oral, 10 mg/kg, NCI-H441 xenograft tumor, study NCI-H441#10, 10 mg/kg, 8h, read-out: RMC-6236 (nM) Tumor
  concentration at 8 h: 685 nM
mouse, tumor, oral, 10 mg/kg, NCI-H441 xenograft tumor, study NCI-H441#10, 10 mg/kg, 24h, read-out: RMC-6236 (nM) Tumor
  concentration at 24 h: 541 nM
mouse, tumor, oral, 10 mg/kg, NCI-H441 xenograft tumor, study NCI-H441#10, 10 mg/kg, 48h, read-out: RMC-6236 (nM) Tumor
  concentration at 48 h: 153 nM
